Data taken from PubChem BioAssay (NCI).
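1) Cells in 96-well plates. 2) Compound, 48 h, 5 concentrations. 3) Linear interpolation between surrounding doses. 4) Unreached endpoint = highest concentration. TGI denotes the concentration required for complete inhibition of growth.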

Columns and labels:
Assay in all cases: NCI-60 cell line screen, 48 h
MDA-N = system: MDA-N
MDA-MB-231 breast = system: MDA-MB-231 breast
SK-OV-3 ovarian = system: SK-OV-3 ovarian
NCI-H522 lung = system: NCI-H522 lung
UACC-62 melanoma = system: UACC-62 melanoma
T-47D breast = system: T-47D breast
IGROV1 ovarian = system: IGROV1 ovarian
M14 melanoma = system: M14 melanoma
U251 CNS = system: U251 CNS
A549 NSCLC = system: A549 NSCLC
A498 renal = system: A498 renal
NCI-H460 lung = system: NCI-H460 lung
SK-MEL-28 melanoma = system: SK-MEL-28 melanoma
OVCAR-8 ovarian = system: OVCAR-8 ovarian
OVCAR-5 ovarian = system: OVCAR-5 ovarian
LOX IMVI melanoma = system: LOX IMVI melanoma
HOP-62 NSCLC = system: HOP-62 NSCLC
HOP-92 NSCLC = system: HOP-92 NSCLC
COLO 205 colon = system: COLO 205 colon
SN12C renal = system: SN12C renal
SF-539 CNS = system: SF-539 CNS
SNB-19 CNS = system: SNB-19 CNS
BT-549 breast = system: BT-549 breast
SNB-75 CNS = system: SNB-75 CNS
HCT-15 colon = system: HCT-15 colon
SR leukemia = system: SR leukemia
DU-145 prostate = system: DU-145 prostate
MALME-3M melanoma = system: MALME-3M melanoma
SF-268 CNS = system: SF-268 CNS
PC-3 prostate = system: PC-3 prostate
MCF7 breast = system: MCF7 breast
HCT-116 colon = system: HCT-116 colon
EKVX NSCLC = system: EKVX NSCLC
OVCAR-3 ovarian = system: OVCAR-3 ovarian
TK-10 renal = system: TK-10 renal
CCRF-CEM leukemia = system: CCRF-CEM leukemia
SW-620 colon = system: SW-620 colon
UACC-257 melanoma = system: UACC-257 melanoma
RPMI-8226 leukemia = system: RPMI-8226 leukemia
SK-MEL-5 melanoma = system: SK-MEL-5 melanoma
NCI-H23 lung = system: NCI-H23 lung
K-562 leukemia = system: K-562 leukemia
HL-60(TB) leukemia = system: HL-60(TB) leukemia
HS 578T breast = system: HS 578T breast
UO-31 renal = system: UO-31 renal
786-0 renal = system: 786-0 renal
HT29 colon = system: HT29 colon
OVCAR-4 ovarian = system: OVCAR-4 ovarian
MOLT-4 leukemia = system: MOLT-4 leukemia
RXF 393 renal = system: RXF 393 renal
KM12 colon = system: KM12 colon
NCI/ADR-RES ovarian = system: NCI/ADR-RES ovarian
CAKI-1 renal = system: CAKI-1 renal
ACHN renal = system: ACHN renal
MDA-MB-435 = system: MDA-MB-435
SF-295 CNS = system: SF-295 CNS
SK-MEL-2 melanoma = system: SK-MEL-2 melanoma
NCI-H226 lung = system: NCI-H226 lung

Measured: TGI

O=C(c1cccc(F)c1F)N1CCc2c([nH]c3ccccc23)C1c1ccc2c(c1)OCO2 (stereo not drawn)
18.4 µM: M14 melanoma
26.3 µM: SF-295 CNS
18.7 µM: HL-60(TB) leukemia
61.4 µM: SNB-19 CNS
47.7 µM: UO-31 renal
21.4 µM: SF-539 CNS
32.7 µM: KM12 colon
91.1 µM: SN12C renal
87.2 µM: CAKI-1 renal
2.83 µM: HOP-62 NSCLC
5.26 µM: OVCAR-3 ovarian
72.5 µM: A549 NSCLC
60.2 µM: NCI-H522 lung
7.01 µM: MDA-N
48.1 µM: RPMI-8226 leukemia
21.3 µM: SR leukemia
22.2 µM: SNB-75 CNS
65.3 µM: EKVX NSCLC
53 µM: NCI/ADR-RES ovarian
12.9 µM: COLO 205 colon
39.2 µM: PC-3 prostate
60.4 µM: UACC-257 melanoma
16.5 µM: SK-MEL-2 melanoma
74.5 µM: MDA-MB-231 breast
51.9 µM: SK-OV-3 ovarian
48.8 µM: UACC-62 melanoma
35.4 µM: RXF 393 renal
6.09 µM: MDA-MB-435
13.4 µM: SK-MEL-5 melanoma
67.8 µM: OVCAR-4 ovarian
57.4 µM: MCF7 breast
29.9 µM: NCI-H460 lung
not listed: NCI-H226 lung
> 100 µM: all other assays above

Cc1n[nH]c(=S)n1/N=C/c1ccc(-c2ccc(Cl)cc2)o1
82.9 µM: SNB-75 CNS
not listed: SK-OV-3 ovarian | UACC-62 melanoma | COLO 205 colon | SN12C renal | SNB-19 CNS | MALME-3M melanoma | CCRF-CEM leukemia
> 100 µM: all other assays above

Cn1c(=O)c2[nH]c(CSCc3ccccc3)nc2n(C)c1=O
not listed: CCRF-CEM leukemia | SW-620 colon | HL-60(TB) leukemia
> 100 µM: all other assays above
